Reference: ChEMBL document CHEMBL4334497, “Synthesis and Pharmacological Characterization of 2-(2,6-Dichlorophenyl)-1-((1S,3R)-5-(3-hydroxy-3-methylbutyl)-3-(hydroxymethyl)-1-methyl-3,4-dihydroisoquinolin-2(1H)-yl)ethan-1-one (LY3154207), a Potent, Subtype Selective, and Orally Available Positive Allosteric Modulator of the Human Dopamine …” (J Med Chem, 2019)
In brackets after ≈: the same amount, converted by molar mass. Activity calls are given as the source filed them. The rule behind the calls is not given here.

Assays:
[1] = Solubility in fasted state simulated intestinal fluids; format: physicochemical; conditions: fasted state simulated intestinal fluid; read-out: solubility
[2] = Solubility in fed state simulated intestinal fluids; format: physicochemical; conditions: fed state simulated intestinal fluid; read-out: solubility
[3] = test system: Mus musculus; experiment: Induction of locomotor activity in human D1 receptor knock-in habituated transgenic mouse assessed as increase in total ambulations up to 10 mg/kg, sc measured for 60 mins after dosing by photocell beam monitoring based method; format: functional, organism-based
[4] = test system: Mus musculus; experiment: Induction of locomotor activity in human D1 receptor knock-in habituated transgenic mouse assessed as increase in total ambulations at 30 to 60 mg/kg, sc measured for 60 mins after dosing by photocell beam monitoring based method; format: functional, organism-based
[5] = Solubility of the compound in pH 6.0 buffer by high throughput solubility assay; format: physicochemical
[6] = Unbound intrinsic clearance in human liver microsomes; format: ADME, Microsome
[7] = molecular target: T1, D(1A) dopamine receptor (Homo sapiens, UniProt P21728); experiment: Positive allosteric modulator activity at human D1 receptor stably expressed in HEK293 cells assessed as potentiation of EC20 dopamine-induced cAMP accumulation incubated for 60 mins by HTRF assay; format: functional, cell-based
[8] = Unbound intrinsic clearance in mouse liver microsomes; format: ADME, Microsome
[9] = Half life in CD1 mouse 1 mg/kg, iv measured up to 24 hrs by LC-MS/MS.analysis; format: ADME, organism-based; conditions: in vivo
[10] = Unbound fraction in mouse liver microsomes by equilibrium dialysis assay; format: ADME, Microsome
[11] = Tmax in CD1 mouse 10 mg/kg, po measured up to 24 hrs by LC-MS/MS.analysis; format: ADME, organism-based; conditions: in vivo
[12] = molecular target: T1, D(1A) dopamine receptor; experiment: Positive allosteric modulator activity at human D1 receptor stably expressed in HEK293 cells assessed as potentiation of EC20 dopamine-induced cAMP accumulation incubated for 60 mins by HTRF assay relative to dopamine alone; format: functional, cell-based
[13] = Clearance in CD1 mouse 1 mg/kg, iv measured up to 24 hrs by LC-MS/MS.analysis; format: ADME, organism-based; conditions: in vivo
[14] = Unbound fraction in mouse brain by equilibrium dialysis assay; format: ADME, tissue-based
[15] = Cmax in CD1 mouse 10 mg/kg, po measured up to 24 hrs by LC-MS/MS.analysis; format: ADME, organism-based; set-up: dose 10 mg/kg, route oral; conditions: in vivo
[16] = Volume of distribution at steady state in CD1 mouse 1 mg/kg, iv or 10 mg/kg, po measured up to 24 hrs by LC-MS/MS.analysis; format: ADME, organism-based; conditions: in vivo, read-out: Vdss
[17] = Permeability from apical to basolateral side in MDCK2 cells stably expressing human wild-type ABCB1 at 5 uM incubated for 60 mins; format: ADME, cell-based, Canis lupus familiaris; conditions: dog, mdck-ii, 1 h
[18] = Unbound fraction in mouse plasma by equilibrium dialysis assay; format: ADME, cell-free
[19] = Unbound brain-to-plasma concentration ratio in mouse at 3 to 240 mg/kg, po by LC-MS/MS.analysis; format: ADME, organism-based; conditions: read-out: K(p,uu,brain)
[20] = AUC in CD1 mouse 10 mg/kg, po measured up to 24 hrs by LC-MS/MS.analysis; format: ADME, organism-based; set-up: dose 10 mg/kg, time < 24 hr, route oral; conditions: in vivo
[21] = AUC in CD1 mouse 1 mg/kg, iv measured up to 24 hrs by LC-MS/MS.analysis; format: ADME, organism-based; set-up: dose 1 mg/kg, time < 24 hr, route intravenous; conditions: in vivo
[22] = Oral bioavailability in CD1 mouse 10 mg/kg measured up to 24 hrs by LC-MS/MS.analysis; format: ADME, organism-based; conditions: in vivo

T1 sequence (P21728 whole entry): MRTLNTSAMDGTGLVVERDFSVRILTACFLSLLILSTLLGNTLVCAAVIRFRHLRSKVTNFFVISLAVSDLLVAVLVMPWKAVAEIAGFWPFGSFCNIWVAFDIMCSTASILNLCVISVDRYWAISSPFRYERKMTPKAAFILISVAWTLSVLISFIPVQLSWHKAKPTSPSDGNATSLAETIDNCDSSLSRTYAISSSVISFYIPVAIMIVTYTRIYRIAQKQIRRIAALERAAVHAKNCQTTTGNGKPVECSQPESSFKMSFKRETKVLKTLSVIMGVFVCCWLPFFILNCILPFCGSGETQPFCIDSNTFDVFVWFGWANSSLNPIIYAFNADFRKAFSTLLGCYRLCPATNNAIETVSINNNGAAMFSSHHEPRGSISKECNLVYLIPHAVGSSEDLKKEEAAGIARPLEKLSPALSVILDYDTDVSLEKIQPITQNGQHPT

In the case of `C[C@H]1c2cccc(CCC(C)(C)O)c2C[C@H](CO)N1C(=O)Cc1c(Cl)cccc1Cl.O=C(O)c1ccc(O)cc1` [MEVIDALEN HYDROXYBENZOATE], the solubility [1] is reported as 206 µg/mL and the solubility [2] is reported as 697 µg/mL.

In the case of `C=CCN1CCc2c(cc(O)c(O)c2Cl)C(c2ccccc2)C1` (stereo unspecified), the Activity [3] is reported as “Active” and the Activity [4] is reported as “inactive”.

Molecule `C[C@H]1c2cccc(CC(C)(C)O)c2C[C@H](CO)N1C(=O)Cc1c(Cl)cccc1Cl` has a solubility [5] of 156 µg/mL (≈ 357 µM), a CL free [6] of 31 mL/min/kg and an EC50 [7] of 76 nM. For the same molecule, the CL free [8] was 779 mL/min/kg.

`C[C@H]1c2cccc(C(C)(C)O)c2C[C@H](CO)N1C(=O)Cc1c(Cl)cccc1Cl` showed a solubility [5] of 116 µg/mL (≈ 275 µM), a half-life [9] of 13.8 min and a fraction unbound [10] of 0.711. The CL free [6] was 43 mL/min/kg, the Tmax [11] was 30 min and the EC50 [7] was 13.9 nM. The Emax [12] was 93%, the clearance [13] was 96.9 mL/min/kg and the fraction unbound [14] was 0.055. The CL free [8] was 965 mL/min/kg, the Cmax [15] was 219 nM and the Vd [16] was 1.65 L/kg. It also gave a permeability [17] of 14%, a fraction unbound [18] of 0.051 and a Kp uu [19] of 1.1. For the same molecule, the AUC at 24 h [20] was 0.367 µM·h, the AUC at 24 h [21] was 0.406 µM·h and the bioavailability [22] was 9%.
